Measured values: US20260355199A1, “COMPOSITIONS AND METHODS FOR TREATING OR PREVENTING NONALCOHOLIC STEATOHEPATITIS (NASH), ANOREXIA, DEPRESSION, ENDOMETRIOSIS, AND OTHER DISEASES OR DISORDERS” (priority 2022, published 2026)
Entries after “also recorded” stand apart in the source; their conditions may differ.

Experiments:
[1] = system: MDMs; assay: TUNEL assay in human MDMs; assay type: cell-based; details: 10 μM, 48 h
Protocol: For TET3 expression restoration experiments, cells seeded in 24-well plates were infected with Ad-GFP or Ad-TET3 at 4000 gc/cell. Following 16 h of infection, vehicle or Bobcat339 were added at a final concentration of 10 μM. Protein and RNA were isolated 48 hours later and analyzed.
These were performed using the In Situ Cell Death Detection Kit (Sigma Aldrich, 12156792910). Briefly, cells were fixed with 4% paraformaldehyde in PBS for 1 h at RT and rinsed with PBS, followed by permeabilization with 0.1% Triton X-100 in 0.1% sodium citrate for 2 min on ice. TUNEL reaction mixture was added and incubation was carried out at 37 °C for 60 min. DAPI was added to counter-stain the cells for 1 min. The slides were coverslipped and scoped using a Keyence BZ-X700 fluorescence microscope.

[2] = system: Bcl2l11, Bid and Pmaip1; assay: Pro-apoptosis gene expression in mouse peritoneal macrophages; assay type: cell-based; details: TGF-b1 primed mouse peritoneal macrophages, 10 μM, 48 h
Protocol: For cultured mouse peritoneal macrophages, cells were primed with 30 ng/ml of TGF-β1 (R&D Systems, 7666-MB0-005) for 48 h (to increase TET3 expression) before Bobcat339 treatment. Bobcat339 (or DMSO) was added at a final concentration of 10 μM, followed by RNA and protein extraction at time points indicated in the figure legends.
Total RNAs were extracted from cells using PureLink RNA Mini Kit. 0.5-1 μg total RNA was reverse transcribed to cDNA in a reaction volume of 20 μL using PrimeScript RT Reagent Kit. Real-time quantitative PCR was performed in a 15 μL reaction volume containing 0.5-1 μL of cDNA using SsoAdvanced Universal SYBR Green Supermix in a Bio-Rad iCycler. Gene expression levels were normalized against RPLP0.

[3] = system: Lewis lung carcinoma (LLC); assay: Syngeneic LLC murine model of lung cancer; assay type: in vivo, mouse; details: for body weight gain: day 16 vs. day 0
Protocol: Metastatic lung cancer was established by tail vein injection of Lewis lung carcinoma (LLC) (a mouse NSCLC cell line, Bertram et al., 1980, Cancer Lett, 11:63-73) cells into immunocompetent mice (FIG. 30A). Intravenous dosing of Bobcat339 (or vehicle) at 2.5 mg/kg every four days was initiated three days after tumor cell injection. The lungs were collected at day 20 from sacrificed mice. On day 16 as compared to day 0, mice in the Veh group lost ~5% of body weight, whereas those in the Bobcat339 group gained ~6% of body weight, which would be expected for a normal female mouse during this age period (FIG. 30B). […] Severe weight loss is frequently seen in patients with NSCLC, which is also associated with systemic inflammation and cancer cachexia (Staal-van den Brekel et al., 1995, J Clin Oncol, 13:2600-2605; Fredrix et al., 1991, Cancer, 68:1616-1621; Jatoi et al., 2001, Ann Thorac Surg, 72:348-351; Ulmann et al., 2019, Ann Nutr Metab, 75:223-230; Jouinot et al., 2020, Clin Nutr, 39:1893-1899).
Metastatic lung cancer was established by tail vein injection of Lewis lung carcinoma (LLC) (a mouse NSCLC cell line) (Bertram et al., 1980, Cancer Lett, 11:63-73) cells into immunocompetent mice (FIG. 29). Intravenous dosing of Bobcat339 (or vehicle) at 3 mg/kg every four days was initiated three days after tumor cell injection. The lungs were collected at day 20 from sacrificed mice.
LLC cells (2.5×10^5 cells/mouse) were injected into the tail vein of female C57BL/6J mice of 8-weeks old. Mice were randomly divided into vehicle (n=5) and Bobcat339 (n=5) groups. Three days after tumor cell injection, the vehicle group mice received tail vein injection of DMSO and the Bobcat339 group with Bobcat339 at the dose of 2.5 or 3 mg/kg body weight every four days. The animals were sacrificed 20 days after tumor cell injection and lungs were isolated and weighed. The whole lung was fixed in 4% paraformaldehyde overnight at 4 °C and embedded in paraffin for histological analysis and IHC. A second cohort of mice (n=5 in each group) treated as above were used for survival studies using moribund as an experimental endpoint.

[4] = Tolerability of Bobcat339 in mice; assay type: in vivo, mouse; details: disease models in mice
[5] = system: TET3; details: Lv et al., 2023; cited from earlier work
[6] = 2.5 mg/kg i.v. every four days, day 20

Nc1nc(=O)n(-c2cccc(-c3ccccc3)c2)cc1Cl [Bobcat339, 4-Amino-1-[1,1′-biphenyl]-3-yl-5-chloro-2(1H)-pyrimidinone]
apoptosis (TUNEL) [1]: increased apoptosis; also recorded: induced apoptosis; also recorded: a significant increase in pyroptotic cell death
apoptosis (TUNEL / Caspase-1) ([1]; with Ad-TET3): abolished when TET3 protein was restored to control levels; also recorded: not seen when TET3 expression level was restored
Bcl2l11, Bid and Pmaip1 expression [2]: an upregulation of all three pro-apoptosis genes
food intake ([3]; 2.5 mg/kg i.v. every four days): no difference in food intake
body weight gain ([3]; 2.5 mg/kg i.v. every four days): ~ 6%
LLC metastases in lungs [3, 6]: Fewer LLC metastases
lung weight [3, 6]: significantly less
LLC metastases in lungs ([3]; 3 mg/kg i.v. every four days): fewer LLC metastases
food intake ([3]; 3 mg/kg i.v. every four days): no difference in food intake
lung weight ([3]; 3 mg/kg i.v. every four days): significantly less
survival rate ([3]; 3 mg/kg i.v. every four days): an increased survival rate
body weight gain ([3]; 3 mg/kg i.v. every four days): ~ 6%
side effects / toxicity [4]: without discernible toxicity; also recorded: without discernible side effects; also recorded: no discernible toxicity
minimal effective concentration [5]: 10 µM
